Assay results taken from patent US20090035758A1, “Method of Measurement of Micronucleated Erythrocyte Populations” (BECKMAN COULTER, INC., priority 2007, published 2009).

Tested on: micronucleated reticulocytes (MNPCE) in mouse peripheral blood
Settings: in vivo, 50 mg/kg, 24 h
Method: 200 to 300 μl of a peripheral blood sample was collected from a mouse using orbital veinipuncture into a test tube containing heparin. The sample was kept at room temperature for analysis.
10 μl of the anticoagulated blood sample was diluted with 290 μl of the isotonic diluent of Example 1 in a test tube. 10 μl of anti CD71-FITC monoclonal antibody at saturating concentration was added into the diluted blood, and the test tube was vortexed and then incubated at room temperature for 30 minutes. 20 μl of the diluted sample containing anti CD71-FITC antibody was taken into a second test tube, and 400 μl of the permeation reagent of Example 1 was added and vortexed immediately. The formed permeation sample mixture was incubated at room temperature for 10 minutes. […]
The final sample mixture was analyzed on a FC500 MCL cytometer (Beckman Coulter, Inc., Fullerton, Calif.). […]
Both FL1 and FL4 were in a logarithmic scale. FL1 and FL4 were the fluorescent signals of the final sample mixture detected at 525 nm and 675 nm, respectively. […]
A mouse was treated with methyl methane sulfonate with a dosage of 50 mg/Kg 24 hours prior to the blood collection. The peripheral blood was collected and processed as described in Example 2, and the final sample mixture was analyzed on the same FC500 MCL cytometer with the identical instrument setting.

COS(C)(=O)=O [methyl methane sulfonate]
micronucleated reticulocytes (percentage of reticulocytes containing micronuclei): 1.30%
